The structures appear in SMILES notation. Counter-ions that a name gives are not always drawn. Like-named read-outs stand apart in the source and are kept apart here.

One assay deals with IL-23p19. Nature of the assay: LPS induced IL23p19 in THP-1 cells (with IFNγ primed) assay. The assay is classed as cell-based, Human. The essentials: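 THP-1 cells primed ~18 h with IFNγ (50 ng/mL), pre-incubated 1 h with compound at 37 °C, then stimulated 18 h with LPS (1 ug/mL final). Supernatant IL-23p19 measured by sandwich ELISA with chemiluminescent read-out; EC50 from curve fitting. Toxicity checked on the remaining cells by Cell Titer Glo.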

For the next assay, the system named is IL-23 (p19/p40). Nature of the assay: IL23-p19 ELISA, Dendritic, LPS (compound screening using DC cells). Format: cell-based, Human. The essentials: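 Human PBMC-derived dendritic cells (7 d GM-CSF 100 ng/ml + IL-4 20 ng/ml), primed 24 h with IFNγ 50 ng/ml, pre-incubated 1 h with compound, then stimulated 18 h with LPS 1 μg/ml. Supernatant IL-23 measured by p19-capture/p40-detection chemiluminescent ELISA; CellTiter Glo checks cytotoxicity.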
In general terms: ELISA stands for enzyme-linked immunosorbent assay.

The mark [1] stands for this setting: Homo sapiens, THP-1, 18 h, THP-1 cells, IFNγ primed, LPS 1 ug/mL, 18 hours, 10 pt, read-out: IL23-p19 ELISA, THP1-IFNy, LPS, 10 pt EC50.
[2] abbreviates: Homo sapiens, 18 h, PBMC-derived DC cells, IFNγ primed, LPS 1 μg/ml, 18 hours, 10 pt, read-out: IL23-p19 ELISA, Dendritic, LPS, 10 pt, EC50.
The mark [3] stands for this setting: PBMC-derived DC cells, IFNγ primed, LPS 1 μg/ml, 18 hours, 10 pt, formate, read-out: IL23-p19 ELISA, Dendritic, LPS, 10 pt, EC50.

With `CCO[C@H]1C[C@@H](n2cc(NC(=O)c3ccc(-c4cn[nH]c4)o3)c(-c3ccc(F)cn3)n2)C1` [Compound I-138, N-(1-((1s,3s)-3-ethoxycyclobutyl)-3-(5-fluoropyridin-2-yl)-1H-pyrazol-4-yl)-5-(1H-pyrazol-4-yl)furan-2-carboxamide formate], the figures for the EC50 in the assay with IL-23p19 (setting [1]) and in the assay on IL-23 (p19/p40) (setting [2]) were 0.926 µM and 0.686 µM, respectively.

`Cc1n[nH]cc1-c1nc(C(=O)Nc2cn(C)nc2-c2ccccn2)cs1` [II-27, 2-(3-methyl-1H-pyrazol-4-yl)-N-(1-methyl-3-(pyridin-2-yl)-1H-pyrazol-4-yl)thiazole-4-carboxamide]: the EC50 (commonly the concentration at which the effect is half-maximal) was 0.0741 µM in the assay with IL-23p19 (setting [1]) and 0.331 µM with IL-23 (p19/p40) (setting [2]).

With `COCCn1cc(NC(=O)c2csc(-c3cn[nH]c3)n2)c(-c2ccccn2)n1` [II-28, N-(1-(2-methoxyethyl)-3-(pyridin-2-yl)-1H-pyrazol-4-yl)-2-(1H-pyrazol-4-yl)thiazole-4-carboxamide], the EC50 was determined as 0.276 µM in the assay with IL-23p19 (setting [1]) and 0.063 µM in the assay on IL-23 (p19/p40) (setting [2]).

For the compound `C[C@]1(O)C[C@H](n2cc(NC(=O)c3csc(-c4cn[nH]c4)n3)c(-c3ccccn3)n2)C1` [II-79, N-(1-((1r,3r)-3-hydroxy-3-methylcyclobutyl)-3-(pyridin-2-yl)-1H-pyrazol-4-yl)-2-(1H-pyrazol-4-yl)thiazole-4-carboxamide], the figures for the EC50 in the assay with IL-23p19 (setting [1]) and with IL-23 (p19/p40) (setting [2]) were 0.0758 µM and 0.0152 µM, respectively.

Take `CCOCCn1cc(NC(=O)c2csc(-c3c[nH]nc3C)n2)c(-c2ccccn2)n1` [II-21, N-(1-(2-ethoxyethyl)-3-(pyridin-2-yl)-1H-pyrazol-4-yl)-2-(3-methyl-1H-pyrazol-4-yl)thiazole-4-carboxamide, formic acid salt]: the values for the 50% effective concentration (EC50) in the assay with IL-23p19 (setting [1]) and in the assay on IL-23 (p19/p40) (setting [2]) were 0.315 µM and 0.569 µM, respectively.

With `CCO[C@H]1C[C@@H](n2cc(NC(=O)c3csc(-c4cnn(COP(=O)(O)O)c4)n3)c(-c3cccc(F)n3)n2)C1` [II-173, (4-(4-((1-((cis)-3-ethoxycyclobutyl)-3-(6-fluoropyridin-2-yl)-1H-pyrazol-4-yl)carbamoyl)thiazol-2-yl)-1H-pyrazol-1-yl)methyl dihydrogen phosphate], the EC50 in the assay on IL-23p19 (setting [1]) turned out to be 0.0414 µM; in the assay on IL-23 (p19/p40) (setting [2]), 0.314 µM.

Consider `CCO[C@@H]1CC[C@H](n2cc(NC(=O)c3csc(-c4cn[nH]c4)n3)c(-c3ccccn3)n2)C1` (relative stereo) [II-147, N-(1-((cis)-3-ethoxycyclopentyl)-3-(pyridin-2-yl)-1H-pyrazol-4-yl)-2-(1H-pyrazol-4-yl)thiazole-4-carboxamide], for which the values for the EC50 in the assay with IL-23p19 (setting [1]) and with IL-23 (p19/p40) (setting [2]) were 0.0574 µM and 0.0987 µM, respectively.

For `CCOCCn1cc(NC(=O)c2ccc(-c3cn[nH]c3)o2)c(-c2ccccn2)n1` [Compound I-37, N-(1-(2-ethoxyethyl)-3-(pyridin-2-yl)-1H-pyrazol-4-yl)-5-(1H-pyrazol-4-yl)furan-2-carboxamide formate], the EC50 with IL-23p19 (setting [1]) was determined as 0.144 µM; in the assay with IL-23 (p19/p40) (setting [3]), 0.0174 µM.

Take `O=C(Nc1cn(C(F)F)nc1-c1ccccn1)c1csc(-c2cn[nH]c2)n1` [II-88, N-(1-(difluoromethyl)-3-(pyridin-2-yl)-1H-pyrazol-4-yl)-2-(1H-pyrazol-4-yl)thiazole-4-carboxamide]: the figures for the EC50 in the assay with IL-23p19 (setting [1]) and with IL-23 (p19/p40) (setting [2]) were 0.0965 µM and 0.39 µM, respectively.

Take `O=C(Nc1cn([C@H]2C[C@@H](O)C2)nc1-c1cccc(F)n1)c1csc(-c2cn[nH]c2)n1` [II-172, N-(3-(6-fluoropyridin-2-yl)-1-((cis)-3-hydroxycyclobutyl)-1H-pyrazol-4-yl)-2-(1H-pyrazol-4-yl)thiazole-4-carboxamide]: the results for the EC50 in the assay on IL-23p19 (setting [1]) and with IL-23 (p19/p40) (setting [2]) were 0.013 µM and 0.0242 µM, respectively.

With `O=C(Nc1cn(C2CN(C(=O)N3CCCC3)C2)nc1-c1ccccn1)c1ccc(-c2cn[nH]c2)o1` [Compound I-93, 5-(1H-Pyrazol-4-yl)-N-{3-(pyridine-2-yl)-1-(pyrrolidine-1-carbonyl)azetidin-3-yl}-1H-pyrazol-4-yl)furan-2-carboxamide, formate salt], the EC50 with IL-23p19 (setting [1]) came to 0.0108 µM; in the assay with IL-23 (p19/p40) (setting [2]), 0.008 µM.

As for `Cn1cc(NC(=O)c2csc(-c3cnn(COP(=O)(O)O)c3)n2)c(-c2ccccn2)n1` [II-38, Potassium (4-(4-((1-methyl-3-(pyridin-2-yl)-1H-pyrazol-4-yl)carbamoyl)thiazol-2-yl)-1H-pyrazol-1-yl)methyl phosphate], the EC50 was 0.505 µM with IL-23p19 (Homo sapiens, THP-1, 18 h, read-out: IL23-p19 ELISA, THP1-IFNy, LPS, 10 pt EC50 (μM)) and 0.771 µM in the assay with IL-23 (p19/p40) (Homo sapiens, 18 h, read-out: IL23-p19 ELISA, Dendritic, LPS, 10 pt, EC50 (μM)).

With `CCOCCn1cc(NC(=O)c2ccc(-c3c[nH]nc3C)o2)c(-c2ccccn2)n1` [Compound I-56, N-(1-(2-ethoxyethyl)-3-(pyridin-2-yl)-1H-pyrazol-4-yl)-5-(3-methyl-1H-pyrazol-4-yl)furan-2-carboxamide formate], the EC50 came out at 0.156 µM with IL-23p19 (setting [1]) and 7.72 µM with IL-23 (p19/p40) (setting [2]).

As to `CCN(CC)CCn1cc(NC(=O)c2csc(-c3cn[nH]c3)n2)c(-c2ccccn2)n1` [II-117, N-(1-(2-(diethylamino)ethyl)-3-(pyridin-2-yl)-1H-pyrazol-4-yl)-2-(1H-pyrazol-4-yl)thiazole-4-carboxamide], the EC50 came out at 0.0566 µM in the assay on IL-23p19 (THP-1 cells, IFNγ primed, LPS 1 ug/mL, 18 hours, 10 pt, read-out: IL23-p19 ELISA, THP1-IFNy, LPS, 10 pt EC50) and 0.106 µM with IL-23 (p19/p40) (setting [2]).

For `O=C(Nc1cn([C@H]2C[C@@H](O)C2)nc1-c1ccccn1)c1csc(-c2cn[nH]c2)n1` [II-14, N-(1-((1,3-cis)-3-hydroxycyclobutyl)-3-(pyridin-2-yl)-1H-pyrazol-4-yl)-2-(1H-pyrazol-4-yl)thiazole-4-carboxamide], the results for the EC50 with IL-23p19 (setting [1]) and with IL-23 (p19/p40) (setting [2]) were 0.0434 µM and 0.0057 µM, respectively.

Regarding `CCO[C@H]1C[C@@H](n2cc(NC(=O)c3csc(-c4cn[nH]c4)n3)c(-c3cccc(F)n3)n2)C1` [II-160, N-(1-((cis)-3-ethoxycyclobutyl)-3-(6-fluoropyridin-2-yl)-1H-pyrazol-4-yl)-2-(1H-pyrazol-4-yl)thiazole-4-carboxamide], the EC50 in the assay on IL-23p19 (setting [1]) is 0.0267 µM; in the assay with IL-23 (p19/p40) (setting [2]), 0.0385 µM.

Consider `O=C(Nc1cn(C2CCOCC2)nc1-c1nccs1)c1ccc(-c2cn[nH]c2)o1` [Compound I-60, 5-(1H-pyrazol-4-yl)-N-(1-(tetrahydro-2H-pyran-4-yl)-3-(thiazol-2-yl)-1H-pyrazol-4-yl)furan-2-carboxamide formate], for which the EC50 with IL-23p19 (THP-1 cells, IFNγ primed, LPS 1 ug/mL, 18 hours, 10 pt, formate, read-out: IL23-p19 ELISA, THP1-IFNy, LPS, 10 pt EC50) stood at 0.175 µM; with IL-23 (p19/p40) (setting [3]), 0.0338 µM.

Take `COCCOCCn1cc(NC(=O)c2csc(-c3cn[nH]c3)n2)c(-c2nccs2)n1` [II-113, N-(1-(2-(2-methoxyethoxy)ethyl)-3-(thiazol-2-yl)-1H-pyrazol-4-yl)-2-(1H-pyrazol-4-yl)thiazole-4-carboxamide]: the figures for the EC50 in the assay on IL-23p19 (setting [1]) and with IL-23 (p19/p40) (setting [2]) were 0.0844 µM and 0.288 µM, respectively.

`O=C(Nc1cn(C2CN(C(=O)C3CC3)C2)nc1-c1ccccn1)c1ccc(-c2cn[nH]c2)o1` [Compound I-89, N-[1-{1-(Cyclopropanecarbonyl)azetidin-3-yl}-3-(pyridine-2-yl)-1H-pyrazol-4-yl]-5-(1H-pyrazol-4-yl)furan-2-carboxamide, formate salt]: the EC50 turned out to be 0.0166 µM in the assay with IL-23p19 (setting [1]) and 0.0231 µM with IL-23 (p19/p40) (setting [2]).

For `CCO[C@H]1C[C@@H](n2cc(NC(=O)c3csc(-c4cnn(COP(=O)(O)O)c4)n3)c(-c3ccccn3)n2)C1` [II-80, (4-(4-((1-((1,3-cis)-3-ethoxycyclobutyl)-3-(pyridin-2-yl)-1H-pyrazol-4-yl)carbamoyl)thiazol-2-yl)-1H-pyrazol-1-yl)methyl phosphate bis-ammonium salt], the EC50 amounted to 0.0495 µM with IL-23p19 (THP-1 cells, IFNγ primed, LPS 1 ug/mL, 18 hours, 10 pt, phosphate bis-ammonium salt, read-out: IL23-p19 ELISA, THP1-IFNy, LPS, 10 pt EC50) and 0.247 µM with IL-23 (p19/p40) (PBMC-derived DC cells, IFNγ primed, LPS 1 μg/ml, 18 hours, 10 pt, phosphate bis-ammonium salt, read-out: IL23-p19 ELISA, Dendritic, LPS, 10 pt, EC50).

Take `CCO[C@H]1CC[C@H](n2cc(NC(=O)c3csc(-c4cn[nH]c4)n3)c(-c3ncccc3F)n2)CC1` [II-169, N-(1-((trans)-4-ethoxycyclohexyl)-3-(3-fluoropyridin-2-yl)-1H-pyrazol-4-yl)-2-(1H-pyrazol-4-yl)thiazole-4-carboxamide]: the EC50 in the assay with IL-23p19 (setting [1]) amounted to 0.042 µM; in the assay with IL-23 (p19/p40) (setting [2]) it was 0.41 µM.

For the compound `CC1(Cn2cc(-c3ccc(C(=O)Nc4cn(CC5(C)COC5)nc4-c4ccccn4)o3)cn2)COC1` [Compound I-48, 5-(1-((3-methyloxetan-3-yl)methyl)-1H-pyrazol-4-yl)-N-(1-((3-methyloxetan-3-yl)methyl)-3-(pyridin-2-yl)-1H-pyrazol-4-yl)furan-2-carboxamide formate], the values for the EC50 with IL-23p19 (setting [1]) and in the assay on IL-23 (p19/p40) (setting [2]) were 5.52 µM and 7.5 µM, respectively.

On to `O=C(Nc1c[nH]nc1-c1ccccn1)c1ccc(-c2cn[nH]c2)o1` [Compound I-47, 5-(1H-pyrazol-4-yl)-N-(3-(pyridin-2-yl)-1H-pyrazol-4-yl)furan-2-carboxamide], for which the EC50 turned out to be 0.392 µM in the assay with IL-23p19 (setting [1]) and 0.327 µM in the assay on IL-23 (p19/p40) (setting [2]).
